The source of these data is patent publication US7147824B2, “Method for suppressing growth of mycobacteria in metalworking fluids” (priority 2003, dated 2006).

Each structure is given as a SMILES string. ≈ marks a conversion by molar mass, not a printed value.

The subject of the first experiment is Mycobacterium immunogenum MWF isolates. The experiment can be described thus: Anti-mycobacterial activity in MWF, plating on Mycoagar. The class given is cell-based. The conditions noted are these: MCC added to a MWF 24 hours after the isothiazolones had been added. The method, then:
The MWFs selected were fluids which had evidence of CMIT incompatibility. The MCC was added to the MWFs 24 hours before the CMIT was added; 24 hours after the CMIT was added; or in a mixture with the CMIT. This was done for each concentration of CMIT (7.5 and 15 ppm) and MCC (250 and 500 ppm). Controls consisted of no biocide and CMIT at 7.5 and 15 ppm. Stability of the isothiazolones was evaluated at time 0 and then after 24 and 48 hours by standard methods for detecting isothiazones. Plating for mycobacteria kill was performed with aliquots from time 0 and 48 hours.
Plating was performed on 100 mm petri dishes containing 20 mL of an appropriate agar. Two different formulations, both based on Plate Count Agar (standard methods for waste and waste water). The medium for recovery of Mycobacterium immunogenum is nutritionally supplemented with TWEEN 80 and glycerin and has three antibiotics (cyclohexamide, chloramphenicol, and gentimicin) to inhibit fungi and unwanted bacteria. This medium with agar is referred to herein as “Mycoagar.”
The MWFs selected were fluids which had evidence of CMIT incompatibility. The MCC was added to the MWFs 24 hours before the CMIT was added at 15 ppm. Stability was evaluated at time 0 and then after 24 and 48 hours by chemical analysis. Plating for mycobacteria kill was performed with aliquots from time O and after 48 hours.
`O=C([O-])CC(O)(CC(=O)[O-])C(=O)O.[Cu+2]` [MCC, disodium monocopper (II) citrate]: the “suppressing growth of the Mycobacterium immunogenum genotype” value is “ineffective”.

In another experiment the test system is Mycobacterium immunogenum isolate.
Assay: not given
The settings on record: Mycobacterium immunogenum isolate from MWF (ATCC 700506); cited from earlier work.
With `CO[C@@]1(NC(=O)Cc2cccs2)C(=O)N2C(C(=O)O)=C(COC(N)=O)CS[C@@H]21` [cefoxitin], the MIC is 64 µg/mL (≈ 150 µM).
For `NCC[C@H](O)C(=O)N[C@@H]1C[C@H](N)[C@@H](O[C@H]2O[C@H](CN)[C@@H](O)[C@H](O)[C@H]2O)[C@H](O)[C@H]1O[C@H]1O[C@H](CO)[C@@H](O)[C@H](N)[C@H]1O` [amikacin], the MIC was 128 µg/mL (≈ 219 µM).
As for `CO[C@@]1(NC(=O)CSCC#N)C(=O)N2C(C(=O)O)=C(CSc3nnnn3C)CS[C@@H]21` [cefinetazole], the minimal inhibitory concentration (MIC) is 64 µg/mL (≈ 136 µM).
As to `Cc1cc(NS(=O)(=O)c2ccc(N)cc2)no1` [sulfamethoxazole], the MIC was greater than 64 µg/mL.
On to `C[C@H]1c2cccc(O)c2C(=O)C2=C(O)[C@]3(O)C(=O)C(C(N)=O)=C(O)[C@@H](N(C)C)[C@@H]3[C@@H](O)[C@@H]21` [doxyxycline], for which the MIC was greater than 128 µg/mL.
